Measured values reported in ChEMBL document CHEMBL5665443, “Enzyme Inhibitor Single Concentration assay results for EUbOPEN Chemogenomics Library” (2024).
*1 amine or outer side, *2 acyl side, *3 side chain or, on linkers, in order; H or OH if unused. Where a SMILES comes first, the peptide text is derived from it. Bridges are numbered along the chain shown (N, C = ends). X1 = O=C(CCC[*:2])[*:1]

Tests used:
[1] = target: Uracil-DNA glycosylase (Homo sapiens) (UniProt P13051); settings: Compound Concentration 10.0 uM, Hit No;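 further: UNG excision on a quenched double-stranded DNA oligo probe, with APE1 added for strand incision and turnover, read as fluorescence at 594 nm as strands separate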
Description: Inhibition of UNG by quantifying inhibition of UNG-mediated cleavage and dissociation of quenched duplex DNA oligonucleotides, measured as fluorescence at 594 nm. To generate a functional strand incision and increase turn-over this assay is coupled to APE1.

[2] = target: DNA-3-methyladenine glycosylase (Homo sapiens) (UniProt P29372); settings: Compound Concentration 10.0 uM, Hit No;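 further: enzyme assay where MPG cuts a quenched duplex DNA oligonucleotide probe, paired with APE1 for strand incision and turnover, read as fluorescence at 594 nm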
Description: Inhibition of MPG by quantifying inhibition of MPG-mediated cleavage and dissociation of quenched duplex DNA oligonucleotides, measured as fluorescence at 594 nm. To generate a functional strand incision and increase turn-over this assay is coupled to APE1.

[3] = target: G/T mismatch-specific thymine DNA glycosylase (Homo sapiens) (UniProt Q13569); settings: Compound Concentration 10.0 uM, Hit No;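 further: human TDG cleavage of quenched duplex DNA oligonucleotides coupled to APE1, strand release read as fluorescence at 594 nm, inhibition of TDG activity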
Description: Inhibition of TDG by quantifying inhibition of TDG-mediated cleavage and dissociation of quenched duplex DNA oligonucleotides, measured as fluorescence at 594 nm. To generate a functional strand incision and increase turn-over this assay is coupled to APE1.

[4] = target: Endonuclease 8-like 1 (Homo sapiens) (UniProt Q96FI4); settings: Compound Concentration 10.0 uM, Hit No;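 further: fluorescence at 594 nm from quenched duplex DNA oligonucleotides released by NEIL1 cleavage and strand separation, reported as reduction of this enzyme activity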
Description: Inhibition of NEIL1 by quantifying inhibition of NEIL1-mediated cleavage and dissociation of quenched duplex DNA oligonucleotides, measured as fluorescence at 594 nm.

[5] = target: N-glycosylase/DNA lyase (Homo sapiens) (UniProt O15527); settings: Compound Concentration 10.0 uM, Hit No;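 further: OGG1 cleavage of a quenched duplex DNA oligonucleotide, coupled to APE1 for strand incision, read as fluorescence at 594 nm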
Description: Inhibition of OGG1 by quantifying inhibition of OGG1-mediated cleavage and dissociation of quenched duplex DNA oligonucleotides, measured as fluorescence at 594 nm. To generate a functional strand incision and increase turn-over this assay is coupled to APE1.

[6] = target: T1, Endonuclease III-like protein 1 (Homo sapiens) (UniProt P78549); settings: Compound Concentration 10.0 uM, Hit No;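 further: enzyme assay tracking NTHL1 cutting and release of a quenched double-stranded DNA oligo substrate, read as fluorescence at 594 nm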
T1 sequence (whole entry): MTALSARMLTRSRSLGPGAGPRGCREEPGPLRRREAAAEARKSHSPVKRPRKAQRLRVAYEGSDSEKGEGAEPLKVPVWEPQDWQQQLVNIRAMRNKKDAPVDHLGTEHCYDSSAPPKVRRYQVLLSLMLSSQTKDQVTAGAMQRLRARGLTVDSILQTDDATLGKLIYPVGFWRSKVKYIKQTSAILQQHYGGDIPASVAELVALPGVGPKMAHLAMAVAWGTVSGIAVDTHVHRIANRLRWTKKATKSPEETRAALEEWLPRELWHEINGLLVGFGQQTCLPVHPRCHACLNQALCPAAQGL
Description: Inhibition of NTHL1 by quantifying inhibition of NTHL1-mediated cleavage and dissociation of quenched duplex DNA oligonucleotides, measured as fluorescence at 594 nm.

[7] = target: T2, Adenine DNA glycosylase (Homo sapiens) (UniProt Q9UIF7); settings: Compound Concentration 10.0 uM, Hit No;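 further: human MUTYH activity read as 594 nm fluorescence from cleavage and release of a quenched DNA duplex, coupled with APE1 for strand incision, lower signal meaning inhibition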
T2 sequence (whole entry): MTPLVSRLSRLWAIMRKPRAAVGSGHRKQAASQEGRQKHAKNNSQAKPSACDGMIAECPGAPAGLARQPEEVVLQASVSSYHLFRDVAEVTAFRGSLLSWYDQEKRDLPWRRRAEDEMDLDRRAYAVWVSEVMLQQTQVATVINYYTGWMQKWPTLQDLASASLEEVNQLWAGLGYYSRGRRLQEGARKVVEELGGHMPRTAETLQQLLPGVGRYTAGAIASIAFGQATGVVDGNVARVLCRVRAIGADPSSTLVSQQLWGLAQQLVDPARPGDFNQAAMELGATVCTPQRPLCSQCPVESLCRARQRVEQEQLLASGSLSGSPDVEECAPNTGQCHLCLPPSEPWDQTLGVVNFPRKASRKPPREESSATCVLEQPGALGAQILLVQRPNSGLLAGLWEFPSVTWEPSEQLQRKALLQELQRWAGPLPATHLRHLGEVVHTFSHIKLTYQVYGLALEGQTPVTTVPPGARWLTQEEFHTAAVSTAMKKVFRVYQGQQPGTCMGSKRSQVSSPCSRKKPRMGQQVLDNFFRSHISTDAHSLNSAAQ
Description: Inhibition of MUTYH by quantifying inhibition of MUTYH-mediated cleavage and dissociation of quenched duplex DNA oligonucleotides, measured as fluorescence at 594 nm. To generate a functional strand incision and increase turn-over this assay is coupled to APE1.

[8] = target: Methyl-CpG-binding domain protein 4 (Homo sapiens) (UniProt O95243); settings: Compound Concentration 10.0 uM, Hit No;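 further: MBD4 activity read as fluorescence at 594 nm from cleavage and release of a quenched duplex DNA oligonucleotide, with APE1 coupled to incise the strand and raise turnover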
Description: Inhibition of MBD4 by quantifying inhibition of MBD4-mediated cleavage and dissociation of quenched duplex DNA oligonucleotides, measured as fluorescence at 594 nm. To generate a functional strand incision and increase turn-over this assay is coupled to APE1.

[9] = target: T3, Endonuclease 8-like 2 (Homo sapiens) (UniProt Q969S2); settings: Compound Concentration 10.0 uM;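 further: fluorescence at 594 nm reports NEIL2 cutting and release of a quenched double-stranded DNA oligo substrate, reduced signal read as inhibition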
T3 sequence (whole entry): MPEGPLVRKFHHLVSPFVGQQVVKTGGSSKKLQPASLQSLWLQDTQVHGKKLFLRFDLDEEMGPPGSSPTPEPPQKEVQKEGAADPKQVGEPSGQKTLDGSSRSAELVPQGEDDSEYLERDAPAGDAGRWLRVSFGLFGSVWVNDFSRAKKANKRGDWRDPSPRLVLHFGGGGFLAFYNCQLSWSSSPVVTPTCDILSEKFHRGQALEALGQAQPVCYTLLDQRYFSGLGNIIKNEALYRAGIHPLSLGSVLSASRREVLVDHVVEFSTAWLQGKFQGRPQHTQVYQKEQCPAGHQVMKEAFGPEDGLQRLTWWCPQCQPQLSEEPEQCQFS
Description: Inhibition of NEIL2 by quantifying inhibition of NEIL2-mediated cleavage and dissociation of quenched duplex DNA oligonucleotides, measured as fluorescence at 594 nm.

Endonuclease 8-like 1 (Homo sapiens), sequence (Q96FI4 whole entry): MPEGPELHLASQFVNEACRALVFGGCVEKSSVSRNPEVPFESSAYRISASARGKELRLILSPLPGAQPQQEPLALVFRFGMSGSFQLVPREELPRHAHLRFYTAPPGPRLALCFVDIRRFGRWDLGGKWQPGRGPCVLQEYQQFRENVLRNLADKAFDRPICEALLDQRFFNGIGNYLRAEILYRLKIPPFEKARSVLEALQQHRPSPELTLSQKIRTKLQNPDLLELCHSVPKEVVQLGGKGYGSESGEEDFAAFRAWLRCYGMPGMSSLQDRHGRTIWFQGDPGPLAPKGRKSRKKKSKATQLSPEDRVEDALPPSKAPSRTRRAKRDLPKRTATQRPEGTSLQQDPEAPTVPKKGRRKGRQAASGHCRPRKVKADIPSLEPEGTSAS
DNA-3-methyladenine glycosylase (Homo sapiens), sequence (P29372 whole entry): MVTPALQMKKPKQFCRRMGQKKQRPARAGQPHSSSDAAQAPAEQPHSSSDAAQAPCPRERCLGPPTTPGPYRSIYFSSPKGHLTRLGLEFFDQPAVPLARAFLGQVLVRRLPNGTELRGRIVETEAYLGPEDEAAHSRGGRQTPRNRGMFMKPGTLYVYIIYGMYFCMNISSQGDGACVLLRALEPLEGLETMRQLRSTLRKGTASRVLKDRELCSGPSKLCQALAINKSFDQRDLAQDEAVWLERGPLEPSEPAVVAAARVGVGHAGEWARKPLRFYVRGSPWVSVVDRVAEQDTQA
G/T mismatch-specific thymine DNA glycosylase (Homo sapiens), sequence (Q13569 whole entry): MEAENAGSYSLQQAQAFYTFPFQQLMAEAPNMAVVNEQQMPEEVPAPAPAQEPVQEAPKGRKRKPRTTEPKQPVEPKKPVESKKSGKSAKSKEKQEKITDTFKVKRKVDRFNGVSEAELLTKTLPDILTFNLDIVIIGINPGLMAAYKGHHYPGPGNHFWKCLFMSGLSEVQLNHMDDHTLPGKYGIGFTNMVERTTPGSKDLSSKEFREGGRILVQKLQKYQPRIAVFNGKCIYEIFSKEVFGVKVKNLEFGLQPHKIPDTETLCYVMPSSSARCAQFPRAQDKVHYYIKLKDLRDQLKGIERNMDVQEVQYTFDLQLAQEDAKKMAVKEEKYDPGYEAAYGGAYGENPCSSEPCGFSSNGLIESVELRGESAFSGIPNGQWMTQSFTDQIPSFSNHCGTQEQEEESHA
Uracil-DNA glycosylase (Homo sapiens), sequence (P13051 whole entry): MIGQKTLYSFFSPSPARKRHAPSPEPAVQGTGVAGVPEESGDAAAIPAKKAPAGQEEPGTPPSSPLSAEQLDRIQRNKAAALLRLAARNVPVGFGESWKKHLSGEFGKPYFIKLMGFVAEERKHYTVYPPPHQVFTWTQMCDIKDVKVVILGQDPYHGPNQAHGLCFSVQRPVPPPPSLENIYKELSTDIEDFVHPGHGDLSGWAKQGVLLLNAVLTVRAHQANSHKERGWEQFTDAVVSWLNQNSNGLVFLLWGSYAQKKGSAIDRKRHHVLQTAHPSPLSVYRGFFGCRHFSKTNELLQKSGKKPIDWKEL
N-glycosylase/DNA lyase (Homo sapiens), sequence (O15527 whole entry): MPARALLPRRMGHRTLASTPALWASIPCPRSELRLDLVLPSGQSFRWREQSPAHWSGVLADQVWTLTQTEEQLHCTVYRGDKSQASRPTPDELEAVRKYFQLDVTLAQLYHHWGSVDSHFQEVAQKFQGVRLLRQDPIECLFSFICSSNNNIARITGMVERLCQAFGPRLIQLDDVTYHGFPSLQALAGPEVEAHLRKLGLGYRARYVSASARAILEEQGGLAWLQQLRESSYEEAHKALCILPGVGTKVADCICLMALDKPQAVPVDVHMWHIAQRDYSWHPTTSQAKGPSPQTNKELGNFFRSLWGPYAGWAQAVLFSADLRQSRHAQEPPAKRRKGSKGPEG
Methyl-CpG-binding domain protein 4 (Homo sapiens), sequence (O95243 whole entry, the tested form may be a part): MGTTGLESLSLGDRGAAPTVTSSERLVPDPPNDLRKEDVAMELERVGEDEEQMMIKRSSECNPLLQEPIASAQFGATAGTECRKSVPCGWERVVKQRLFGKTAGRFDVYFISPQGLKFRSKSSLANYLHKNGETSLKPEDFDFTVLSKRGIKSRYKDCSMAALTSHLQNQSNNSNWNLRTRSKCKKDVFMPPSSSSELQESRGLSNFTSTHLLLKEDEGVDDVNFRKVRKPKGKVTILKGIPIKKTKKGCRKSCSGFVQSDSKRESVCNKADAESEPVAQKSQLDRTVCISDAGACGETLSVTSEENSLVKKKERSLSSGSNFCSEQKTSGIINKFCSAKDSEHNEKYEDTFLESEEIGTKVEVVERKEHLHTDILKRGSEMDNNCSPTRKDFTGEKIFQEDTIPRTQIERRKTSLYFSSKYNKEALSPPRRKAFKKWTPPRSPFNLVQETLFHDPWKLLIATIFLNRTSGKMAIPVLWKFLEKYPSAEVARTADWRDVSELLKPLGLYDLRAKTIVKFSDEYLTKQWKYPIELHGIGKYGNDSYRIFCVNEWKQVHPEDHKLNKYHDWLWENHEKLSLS

Row | SMILES | inhibition [1] [%] | inhibition [2] [%] | inhibition [3] [%] | inhibition [4] [%] | inhibition [5] [%] | inhibition [6] [%] | inhibition [7] [%] | inhibition [8] [%] | inhibition ([9]; Hit No) [%] | inhibition ([9]; Hit Yes) [%]
1 | Cn1c(=O)n(CCCO)c(=O)c2c1nc(Oc1cccc(Cl)c1)n2Cc1ccc(Cl)cc1 | 0.363 | 11.6 | 8.76 | 2.53 | -1.16 | 12.1 | 15.9 | 23.2 | – | –
2 | CN1CCc2cc(Cl)c(O)cc2[C@@H](c2ccccc2)C1 | -3.84 | 10.9 | 3.73 | -6.51 | -2.12 | 4.7 | 14.8 | 14.5 | 3.22 | –
3 | CCNC(=O)[C@H]1O[C@@H](n2cnc3c(N)nc(NCCc4ccc(CCC(=O)O)cc4)nc32)[C@H](O)[C@@H]1O | -6.16 | -2.22 | 0.161 | 3.42 | -9.97 | 1.39 | 11.8 | 17.2 | -6.46 | –
4 | COc1ccc(CC(=O)NC(N/C(=N/C#N)Nc2cccc3ncccc23)C(C)(C)C)cc1OC (centres undefined) | -5.2 | 7.8 | 7.3 | 3.12 | -8 | 16.2 | 7.91 | -7.77 | 1.94 | –
5 | CCCCC/C=C\C/C=C\C/C=C\C/C=C\CCCC(=O)OC(CO)CO | -9.11 | 3.34 | 27 | 4.39 | 1.41 | 9.99 | 14.2 | 28.4 | 12 | –
6 | N=C(N)NCCC[C@H](NC(=O)COCC(c1ccccc1)c1ccccc1)C(=O)O | – | 6.97 | -4.14 | 7.21 | -5.82 | 9.99 | 3.99 | -5.83 | -7.47 | –
7 | CN1CCN2c3ccccc3Cc3ccccc3C2C1 (centres undefined) | -6.73 | 9.97 | 1.8 | -1.32 | -6.17 | -6.86 | 1.87 | 11.7 | – | –
8 | CC(C)C[C@@H](NC(=O)[C@H](Cc1ccccc1)NC(=O)CNC(=O)[C@@H](C)NC(=O)[C@@H](N)Cc1ccc(O)cc1)C(=O)O | -7.3 | -5.23 | 20.9 | – | -5.5 | 10.5 | 18.5 | 20 | – | –
9 | COc1cc(C(C)C)c(Oc2cnc(NC(CO)CO)nc2N)cc1I | -4.17 | -3.99 | -1.74 | -4.73 | -8.24 | 6.35 | 2 | -6.99 | – | –
10 | COc1cc2nc(N(C)CCCNC(=O)C3CCCO3)nc(N)c2cc1OC (centres undefined) | -4.94 | 21.4 | 16.1 | -3.84 | -9.24 | 27.8 | 34.2 | 25.4 | – | 32.3
11 | O=C(O)c1cccc(/C=C2/C[C@@H]3[C@@H](/C=C/[C@H](O)C4CCCCC4)[C@H](O)C[C@@H]3O2)c1 | -4.36 | 18.3 | 21.2 | -8.73 | -8.69 | 15.4 | 18.1 | 16.8 | -5.7 | –
12 | CC1(C)SSC(C)(C)[C@@H](NC(=O)[C@@H](N)Cc2ccc(O)cc2)C(=O)NCC(=O)N[C@@H](Cc2ccccc2)C(=O)N[C@H]1C(=O)O | – | 7.58 | 10.6 | 8.1 | -3.29 | 17.3 | 1.3 | -7.23 | 9.5 | –
13 | CCCCN(CCCC)C(=O)CN1C[C@@H](c2ccc3c(c2)OCO3)[C@H](C(=O)O)[C@H]1c1ccc(OC)cc1 | – | 19.8 | 32.4 | -5.1 | 2.58 | 4.86 | 19.5 | 29.1 | -2.98 | –
14 | Cc1nccn1CC1CCc2c(c3ccccc3n2C)C1=O (centres undefined) | -9.34 | 13.8 | 0.598 | 6.23 | -7.85 | 22 | 19 | 17 | – | –
15 | Nc1nc(Nc2ccccc2)nc2c1ncn2[C@@H]1O[C@H](CO)[C@@H](O)[C@H]1O | -5.2 | -7.65 | 10.5 | -6.51 | 6.96 | 1.39 | -1.27 | 11.6 | – | –
16 | CCCN[C@H]1CCc2nc(N)sc2C1 | -5.95 | -0.406 | 19.3 | -3.55 | -6.43 | 22 | 13.4 | 9.06 | – | –
17 | O=c1ccc2c(OCCCCOc3ccccc3)c3ccoc3cc2o1 | -5.58 | 29.9 | -7.24 | -4.29 | 3.75 | 3.87 | 3.71 | 11.1 | – | –
18 | CC[C@H](C)[C@@H]1NC(=O)[C@H](Cc2ccc(OC)cc2)NC(=O)CCCSC[C@@H](C(=O)N2CCC[C@H]2C(=O)N[C@@H](CC(C)C)C(=O)NCC(N)=O)NC(=O)[C@H](CC(N)=O)NC(=O)[C@H](CCC(N)=O)NC1=O (Y(Me)IQNCPLG-NH2; linker N-5 via X1) | – | -9.15 | -1.9 | -0.0556 | -9.58 | 33.4 | -1 | -5.48 | -7.22 | –
19 | CCCCCCCC/C=C\CCCCCCCC(=O)NCc1ccc(O)c(OC)c1 | -4.89 | -5.12 | 13.7 | – | -7.56 | -7.69 | 5.55 | 18.2 | – | –
20 | C[N+]1(C)[C@@H]2C[C@@H](OC(=O)C(O)(c3cccs3)c3cccs3)C[C@H]1[C@@H]1O[C@@H]12 | – | -7.84 | -0.0311 | 8.84 | -4.25 | 7.05 | 9.11 | -8.5 | 2.01 | –
21 | Cc1cc(NC(=O)NCCN2CCC(O)(Cc3ccccc3)CC2)c2ccccc2n1 | -0.672 | -4.68 | 11.4 | – | -6.59 | -6.04 | 17.8 | 28.9 | -1.88 | –
22 | O=C(O)CCC/C=C\C[C@H]1C(=O)C[C@@H](O)[C@@H]1/C=C/[C@@H](O)CCc1ccccc1 | -6.21 | -3.36 | 20.6 | -9.47 | -5.63 | 14.6 | 15.1 | 13.3 | – | –
23 | CS(=O)(=O)Nc1c(O)ccc2c1CCCC2C1=NCCN1 (centres undefined) | -0.201 | 2.87 | -0.654 | 2.08 | -9.24 | 13.8 | 23.1 | 17.6 | – | –
24 | CO[C@H]1CC[C@@H](C(=O)c2ccc3nc4c(cc3c2)CCCO4)CC1 | – | -2.23 | 4.03 | 1.35 | -3.26 | -6.5 | -9.06 | -6.79 | 8.38 | –
25 | CN(C)CCn1cc(S(=O)(=O)c2cccc(F)c2)c2cccnc21 | -6.74 | 4.26 | 2.84 | -6.66 | -9.57 | 10.5 | 1.09 | 7 | – | –
